Our source for the Ki and melting point values is patent US20080221116A1, “ISOXAZOLINE ALPHA 1a/1d ADRENORECEPTOR ANTAGONISTS” (priority 2006, published 2008).

pKi: −log10 of the molar value. Values joined by “and” are separate entries in the source; they are usually repeats but may differ in a detail not shown here. Identical values can stand only once. Like-named read-outs stand apart in the source and are kept apart here.

Data set [1] deals with T1, α1b-AR (Homo sapiens, UniProt P35368).
T1 construct: expressed in transfected cells; host or cells: COS-7 cells (African Green monkey kidney), membranes
T1 sequence (P35368 1-520): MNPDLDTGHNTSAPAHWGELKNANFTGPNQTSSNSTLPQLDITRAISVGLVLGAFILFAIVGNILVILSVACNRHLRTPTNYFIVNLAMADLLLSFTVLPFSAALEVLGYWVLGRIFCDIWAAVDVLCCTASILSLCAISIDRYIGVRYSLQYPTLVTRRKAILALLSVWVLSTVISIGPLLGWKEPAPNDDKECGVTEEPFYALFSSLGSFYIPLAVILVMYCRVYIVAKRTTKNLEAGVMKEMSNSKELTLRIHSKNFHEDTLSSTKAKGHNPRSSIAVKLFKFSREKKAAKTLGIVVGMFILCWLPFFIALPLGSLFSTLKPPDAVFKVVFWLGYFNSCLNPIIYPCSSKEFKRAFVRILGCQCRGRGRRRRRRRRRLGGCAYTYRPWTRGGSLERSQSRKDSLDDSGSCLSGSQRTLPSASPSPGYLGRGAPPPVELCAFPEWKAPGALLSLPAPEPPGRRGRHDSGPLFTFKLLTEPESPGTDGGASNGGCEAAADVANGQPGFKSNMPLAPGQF
As to the kind of experiment: α1-Adrenergic Receptor Binding Assay, 125I-HEAT radio-ligand binding, transfected COS-7 cell membranes, α1b subtype. Particulars: COS-7 membranes. Put shortly: (§1)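 Competition binding of ¹²⁵I-HEAT ([…]) on membranes from COS-7 cells transfected with each human α1-AR subtype; membrane 0.5 ng/μL (α1a, α1b) or 13 ng/μL (α1d). Compound […] in half-log steps, triplicates, 1 hr at rt. Filtration and scintillation counting; Ki (nM) derived.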

The target of data set [2] is T2, α1a-AR (Homo sapiens, UniProt P35348).
T2 construct: expressed in transfected cells; host or cells: COS-7 cells (African Green monkey kidney), membranes
T2 sequence (P35348 1-466): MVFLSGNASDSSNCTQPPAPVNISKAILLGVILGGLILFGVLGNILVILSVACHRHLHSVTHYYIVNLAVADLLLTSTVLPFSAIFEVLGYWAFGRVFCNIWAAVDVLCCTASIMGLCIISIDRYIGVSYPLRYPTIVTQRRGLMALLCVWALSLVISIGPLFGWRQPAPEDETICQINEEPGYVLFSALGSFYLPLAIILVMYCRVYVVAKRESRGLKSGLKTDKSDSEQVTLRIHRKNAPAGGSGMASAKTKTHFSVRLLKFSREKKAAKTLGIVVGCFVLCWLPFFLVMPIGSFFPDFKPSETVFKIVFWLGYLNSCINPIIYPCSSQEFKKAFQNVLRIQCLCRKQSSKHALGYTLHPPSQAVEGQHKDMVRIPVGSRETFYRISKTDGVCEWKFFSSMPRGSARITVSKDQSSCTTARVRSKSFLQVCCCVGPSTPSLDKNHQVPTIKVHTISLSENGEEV
As to the kind of experiment: α1-Adrenergic Receptor Binding Assay, 125I-HEAT radio-ligand binding, transfected COS-7 cell membranes, α1a subtype. To be noted: COS-7 membranes. The gist of the method: as §1

The target in data set [3] is T3, α1d-AR (Homo sapiens, UniProt P25100).
T3 construct: expressed in transfected cells; host or cells: COS-7 cells (African Green monkey kidney), membranes
T3 sequence (P25100 1-572): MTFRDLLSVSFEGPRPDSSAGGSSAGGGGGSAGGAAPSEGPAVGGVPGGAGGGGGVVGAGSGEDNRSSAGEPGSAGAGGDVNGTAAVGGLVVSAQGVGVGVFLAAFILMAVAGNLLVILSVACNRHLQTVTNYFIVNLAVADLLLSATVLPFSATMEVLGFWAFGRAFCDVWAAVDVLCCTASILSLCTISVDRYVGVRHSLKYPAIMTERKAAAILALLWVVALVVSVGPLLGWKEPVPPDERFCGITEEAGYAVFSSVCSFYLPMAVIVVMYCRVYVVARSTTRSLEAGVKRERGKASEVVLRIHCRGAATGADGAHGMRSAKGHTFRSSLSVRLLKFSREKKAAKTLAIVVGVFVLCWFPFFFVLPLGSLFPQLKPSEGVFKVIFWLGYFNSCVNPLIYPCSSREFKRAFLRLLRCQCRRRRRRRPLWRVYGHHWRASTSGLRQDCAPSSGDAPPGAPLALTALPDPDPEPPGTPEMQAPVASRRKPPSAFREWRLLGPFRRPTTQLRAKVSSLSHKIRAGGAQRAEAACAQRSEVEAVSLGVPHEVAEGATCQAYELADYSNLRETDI
Put plainly: α1-Adrenergic Receptor Binding Assay, 125I-HEAT radio-ligand binding, transfected COS-7 cell membranes, α1d subtype. Particulars: COS-7 membranes. The gist of the method:
as §1

[4] abbreviates: average value, read-out: Alpha 1 Ki α1b (1) Average Value.
The mark [5] stands for this setting: individual values, read-out: Alpha 1 Ki α1b (2) Individual Values.
Where [6] appears, read: average value, read-out: Alpha 1 Ki α1a (1) Average Value.
Where [7] appears, read: individual values, read-out: Alpha 1 Ki α1a (2) Individual Values.
Where [8] appears, read: average value, read-out: Alpha 1 Ki α1d (1) Average Value.
The mark [9] stands for this setting: individual values, read-out: Alpha 1 Ki α1d (2) Individual Values.

Consider `CC(C)Oc1ccccc1N1CCN(CC2CC(C(=O)N3CCC(S(=O)(=O)c4ccccc4)CC3)=NO2)CC1` (centres unmarked) [Compound 30, (4-benzenesulfonyl-piperidin-1-yl)-{5-[4-(2-isopropoxy-phenyl)-piperazin-1-ylmethyl]-4,5-dihydro-isoxazol-3-yl}-methanone], for which the melting point was 74 to 76 °C. The pKi in data set [1] (setting [4]) was 6.76. In addition, the pKi in data set [1] (setting [5]) is 6.79 and 6.74. Besides, the pKi in data set [2] (setting [6]) was 8.47. In data set [2] (setting [7]), the negative-log Ki (pKi) is 8.47. Further, the pKi in data set [3] (setting [8]) was 8.35. The pKi in data set [3] (setting [9]) was 8.24 and 8.49.

`CC(C)Oc1ccccc1N1CCN(CC2CC(C(=O)N3CCC(c4ccccc4)(c4ccccc4)CC3)=NO2)CC1` (centres unmarked) [Compound 31, (4,4-diphenyl-piperidin-1-yl)-{5-[4-(2-isopropoxy-phenyl)-piperazin-1-ylmethyl]-4,5-dihydro-isoxazol-3-yl}-methanone] gave a melting point of 61 to 63 °C. The pKi in data set [1] (setting [4]) is 6.61. The pKi in data set [1] (setting [5]) is 6.61. The pKi in data set [2] (setting [6]) is 7.60. Moreover, the pKi in data set [2] (setting [7]) was 7.60. Besides, in data set [3] (setting [8]), the pKi is 8.02. In addition, the negative logarithm of the Ki (pKi) in data set [3] (setting [9]) is 8.02.

On to `CC(C)Oc1ccccc1N1CCN(CC2CC(CN3CCc4ccc(NCc5ccccc5F)cc43)=NO2)CC1` (centres unmarked) [Compound 8, (2-fluoro-benzyl)-(1-{5-[4-(2-isopropoxy-phenyl)-piperazin-1-ylmethyl]-4,5-dihydro-isoxazol-3-ylmethyl}-2,3-dihydro-1H-indol-6-yl)-amine], for which the pKi in data set [1] (setting [4]) was 6.52; in data set [1] (setting [5]), 6.52; in data set [2] (setting [6]), 8.16; in data set [2] (setting [7]), 8.16; in data set [3] (setting [8]), 7.46; in data set [3] (setting [9]), 7.46.

For the compound `CC(C)Oc1ccccc1N1CCN(CC2CC(C(=O)N3CCC(C(=O)c4ccccc4)CC3)=NO2)CC1` (centres unmarked) [Compound 21, (4-benzoyl-piperidin-1-yl)-{5-[4-(2-isopropoxy-phenyl)-piperazin-1-ylmethyl]-4,5-dihydro-isoxazol-3-yl}-methanone], the pKi in data set [1] (setting [4]) is 6.65; in data set [1] (setting [5]), 6.54 and 6.80; in data set [2] (setting [6]) it was 8.28; in data set [2] (setting [7]) it was 8.49 and 8.14; in data set [3] (setting [8]), 8.12; in data set [3] (setting [9]) it was 8.26 and 8.01.

`CC(C)Oc1ccccc1N1CCN(CC2CC(C(=O)N3CCc4ccccc43)=NO2)CC1` (single isomer, unassigned) [Compound 37, (2,3-dihydro-indol-1-yl)-{(5R*)-5-[4-(2-isopropoxy-phenyl)-piperazin-1-ylmethyl]-4,5-dihydro-isoxazol-3-yl}-methanone]: the pKi was 7.43 in data set [1] (setting [4]); 7.43 in data set [1] (setting [5]); 9.27 in data set [2] (setting [6]); 9.27 in data set [2] (setting [7]); 9.55 in data set [3] (setting [8]); 9.55 in data set [3] (setting [9]).

For `COc1ccccc1C1CCN(C(=O)C2=NOC(CN3CCN(c4ccccc4OC(C)C)CC3)C2)CC1` (centres unmarked) [Compound 33, {5-[4-(2-isopropoxy-phenyl)-piperazin-1-ylmethyl]-4,5-dihydro-isoxazol-3-yl}-[4-(2-methoxy-phenyl)-piperidin-1-yl]-methanone], the negative logarithm of the Ki (pKi) is 6.60 in data set [1] (setting [4]); 6.60 in data set [1] (setting [5]); 7.72 in data set [2] (setting [6]); 7.72 in data set [2] (setting [7]); 7.70 in data set [3] (setting [8]); 7.70 in data set [3] (setting [9]).

In the case of `CC(C)Oc1ccccc1N1CCN(CC2CC(CN3CCCCC3=O)=NO2)CC1` (single isomer, unassigned) [Compound 2, 1-{(5R*)-5-[4-(2-isopropoxy-phenyl)-piperazin-1-ylmethyl]-4,5-dihydro-isoxazol-3-ylmethyl}-piperidin-2-one], the pKi in data set [1] (setting [4]) was 7.27; in data set [1] (setting [5]), 7.10 and 7.39 and 7.25 and 7.42; in data set [2] (setting [6]), 9.10; in data set [2] (setting [7]), 9.00 and 9.15 and 9.07 and 9.22; in data set [3] (setting [8]), 8.35; in data set [3] (setting [9]), 8.28 and 8.33 and 8.24 and 8.64.

Take `CC(C)Oc1ccccc1N1CCN(CC2CC(C(=O)N3CC(C)(C)c4cc(Br)ccc43)=NO2)CC1` (single isomer, unassigned) [Compound 42, (5-bromo-3,3-dimethyl-2,3-dihydro-indol-1-yl)-{(5R*)-5-[4-(2-isopropoxy-phenyl)-piperazin-1-ylmethyl]-4,5-dihydro-isoxazol-3-yl}-methanone]: the negative-log Ki (pKi) in data set [1] (setting [4]) is 6.54; in data set [1] (setting [5]), 6.54; in data set [2] (setting [6]), 8.23; in data set [2] (setting [7]), 8.23; in data set [3] (setting [8]) it was 9.36; in data set [3] (setting [9]), 9.36.

For the compound `CC(C)Oc1ccccc1N1CCN(CC2CC(C(=O)N3CCc4ccc([N+](=O)[O-])cc43)=NO2)CC1` (centres unmarked) [Compound 11, {5-[4-(2-isopropoxy-phenyl)-piperazin-1-ylmethyl]-4,5-dihydro-isoxazol-3-yl}-(6-nitro-2,3-dihydro-indol-1-yl)-methanone], the negative-log Ki (pKi) is 6.84 in data set [1] (setting [4]); 6.82 and 6.87 in data set [1] (setting [5]); 8.85 in data set [2] (setting [6]); 8.66 and 9.20 in data set [2] (setting [7]); 8.74 in data set [3] (setting [8]); 8.51 and 9.26 in data set [3] (setting [9]).

`CC(C)Oc1ccccc1N1CCN(CC2CC(C(=O)N3CCC(C(=O)c4ccc(F)cc4)CC3)=NO2)CC1` (single isomer, unassigned) [Compound 41, [4-(4-fluoro-benzoyl)-piperidin-1-yl]-{(5R*)-5-[4-(2-isopropoxy-phenyl)-piperazin-1-ylmethyl]-4,5-dihydro-isoxazol-3-yl}-methanone]: the negative-log Ki (pKi) was 5.77 in data set [1] (setting [4]); 5.77 in data set [1] (setting [5]); 6.62 in data set [2] (setting [6]); 6.62 in data set [2] (setting [7]); 7.24 in data set [3] (setting [8]); 7.24 in data set [3] (setting [9]).

Turning to `CC(C)Oc1ccccc1N1CCN(CC2CC(C(=O)N3CCC(C(=O)c4ccc(F)cc4)CC3)=NO2)CC1` (single isomer, unassigned) [Compound 40, [4-(4-fluoro-benzoyl)-piperidin-1-yl]-{(5S*)-5-[4-(2-isopropoxy-phenyl)-piperazin-1-ylmethyl]-4,5-dihydro-isoxazol-3-yl}-methanone], the pKi in data set [1] (setting [4]) is 6.27; in data set [1] (setting [5]), 6.27; in data set [2] (setting [6]), 8.19; in data set [2] (setting [7]), 8.19; in data set [3] (setting [8]), 8.34; in data set [3] (setting [9]) it was 8.34.

In the case of `CC(C)Oc1ccccc1N1CCN(CC2CC(C(=O)N3CCOCC3)=NO2)CC1` (single isomer, unassigned) [Compound 45, {(5R*)-5-[4-(2-Isopropoxy-phenyl)-piperazin-1-ylmethyl]-4,5-dihydro-isoxazol-3-yl}-morpholin-4-yl-methanone], the negative-log Ki (pKi) in data set [1] (setting [4]) was 5.97; in data set [1] (setting [5]), 5.97; in data set [2] (setting [6]) it was 7.14; in data set [2] (setting [7]), 7.14; in data set [3] (setting [8]) it was 6.53; in data set [3] (setting [9]), 6.53.

Usually pKi stands for the negative decadic logarithm of the Ki, by convention in mol/L. For orientation: melting point means the temperature of the solid-liquid transition.
